{"source": "patent US8318670B2", "about": "“Antigens targeted by pathogenic AI4 T cells in type 1 diabetes and uses thereof” (Albert Einstein College of Medicine of Yeshiva University, priority 2004, dated 2012)", "key": {"AI4 CTL": {"system": "AI4 CTL", "test": "51Cr-release cytotoxicity assay, AI4 CTL against peptide-pulsed RMA-S target cells", "assay_type": "cell-based, mouse", "settings": "for AI4 CTL response to natural peptides with AI4-preferred motif: RMA-S targets, peptide 0.1 nM to 1 μM (FIG. 11A); for AI4 cytotoxic response towards peptide-pulsed RMA-S target cells: mimotope and alanine-substituted peptides, varying concentrations, E:T ratio of 40", "protocol": "Cytotoxicity assays for screening of HPLC fractions and peptide libraries. AI4 CTL were generated by culturing splenocytes from NOD.AI4αβTg mice with IFN-γ-treated NIT-1 cells and 12.5 U/ml IL-2 as described (DiLorenzo et al., 2002). NY8.3 CTL were generated by culturing splenocytes from 8.3-NOD mice with mitomycin C-treated NOD splenocytes pulsed with 10 nM NRP-A7 peptide as described (DiLorenzo et al., 2002). CTL were used in 16 h ^51Cr-release cytotoxicity assays to test for recognition of peptide-pulsed target cells at an E:T ratio of 40:1 as described (DiLorenzo et al., 2002). TAP-deficient cell lines RMA-S, RMA-S/K^d, T2, and T2-K^d were used as targets. Synthetic peptides or peptide library mixes were used at concentrations indicated in the figures, and 1.6×10^9 NIT-1 cell equivalents of peptide were used for HPLC fraction screening assays.\nCytotoxicity Assay. AI4 CTL were generated by culturing splenocytes from NOD.AI4αβ Tg mice with IFN-γ-treated NIT-1β cells (Hamaguchi et al., 1991) and IL-2 as described (DiLorenzo et al., 2002). CTL were used in 16 h ^51Cr-release cytotoxicity assays to test for recognition of peptide-pulsed target cells at an effector to target ratio of 40:1 as described (DiLorenzo et al., 2002). TAP-deficient RMA-S cells (Kerre et al., 1986) were used as targets."}, "[1]": {"system": "T cells cultured from NOD islets", "test": "IFN-γ ELISPOT of T cells cultured from NOD islets with peptide-pulsed APC", "assay_type": "cell-based, mouse", "settings": "1 μM peptide, T cells from pooled islets of 11-week-old NOD mice, 40 h", "protocol": "ELISPOT assay. ELISPOT plates (MAHA S45 10; Millipore, Billerica, Mass.) were precoated with anti-murine IFN-γ Ab (R4-6A2; BD Biosciences Pharmingen, San Diego, Calif.) and blocked with 1% BSA (Fraction V, Sigma-Aldrich, St. Louis, Mo.) in PBS. APC (Mitomycin C-treated NOD splenocytes) were added at 2×10^4 cells/well and pulsed for 1 h with 1 μM of each peptide (MimA2, NRP-V7, INS-19, INS BC, GAD65206, GAD65546). Cultured islet T cells were added at 2×10^4 cells/well and plates were incubated at 37° C. for 40 h. IFN-γ secretion was detected with a second, biotinylated anti-murine IFN-γ Ab (XMG1.2; BD Biosciences Pharmingen, San Diego, Calif.). Spots were developed using streptavidin-alkaline phosphatase (Zymed Laboratories, Inc., South San Francisco, Calif.) and 5-bromo-4-chloro-3-indolyl-phosphate/nitroblue tetrazolium chloride substrate (Sigma-Aldrich, St. Louis, Mo.).\nIFN-γ ELISPOT. ELISPOT plates (MAHA S45 10; Millipore) were coated with anti-murine IFN-γ Ab (R4-6A2; BD Biosciences Pharmingen) and blocked with 1% BSA (Sigma-Aldrich) in PBS. APC (Mitomycin C-treated NOD splenocytes) were added at 2×10^4 cells/well and pulsed with 1 μM peptide. Cultured islet T cells were added at 2×10^4 cells/well and plates were incubated at 37° C. for 40 h. Secreted IFN-γ was detected with a second, biotinylated anti-murine IFN-γ Ab (XMG1.2; BD Biosciences Pharmingen). Spots were developed using streptavidin-alkaline phosphatase (Zymed Laboratories) and 5-bromo-4-chloro-3-indolyl-phosphate/nitroblue tetrazolium chloride substrate (Sigma-Aldrich). For all incubation steps, plate bottoms were covered with aluminum foil to distribute heat uniformly across the plate as described (Kalyuzhny and Stark, 2001)."}, "H-2K^d": {"molecular_target": "T1, H-2K^d (Mus musculus, UniProt P01902)", "T1 sequence (P01902 22-368)": "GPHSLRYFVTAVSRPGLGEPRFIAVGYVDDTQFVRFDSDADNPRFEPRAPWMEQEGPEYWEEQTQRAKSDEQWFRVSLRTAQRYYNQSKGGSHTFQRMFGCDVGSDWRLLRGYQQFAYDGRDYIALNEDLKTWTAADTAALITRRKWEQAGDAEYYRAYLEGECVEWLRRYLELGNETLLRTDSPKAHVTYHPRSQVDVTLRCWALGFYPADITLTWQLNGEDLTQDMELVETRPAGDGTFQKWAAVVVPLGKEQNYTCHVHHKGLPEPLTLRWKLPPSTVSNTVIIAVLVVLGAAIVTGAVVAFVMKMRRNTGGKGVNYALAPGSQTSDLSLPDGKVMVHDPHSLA", "T1 sequence (P01887 21-119 partner)": "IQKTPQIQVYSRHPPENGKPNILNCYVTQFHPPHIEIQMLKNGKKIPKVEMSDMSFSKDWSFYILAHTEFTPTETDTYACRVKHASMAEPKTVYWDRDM", "settings": "cited from earlier work"}}, "note": "pEC50: −log10 of the molar value. Where no end group is shown, it is not given here."}
{"sequence": "VTLENYTHL [VTL9, natural peptide of hypothetical protein]", "values": [{"measurement": "AI4 CTL response to natural peptides with AI4-preferred motif", "setting": "AI4 CTL", "value": "nonreacting"}]}
{"sequence": "YAIENYLEL [MimA2, YAIENYLEL]", "values": [{"measurement": "pEC50", "setting": "AI4 CTL; RMA-S target cells, E:T ratio of 40, lower peptide concentrations (FIG. 6B), read-out: half-maximal activity, AI4 cytotoxic response", "value": 11.00}, {"measurement": "AI4 cytotoxic response towards peptide-pulsed RMA-S target cells", "setting": "AI4 CTL", "value": "strongest AI4 CTL response of all of the peptides"}]}
{"sequence": "YFIENYLEL [Mim, YFIENYLEL]", "values": [{"measurement": "AI4 cytotoxic response towards peptide-pulsed RMA-S target cells", "setting": "AI4 CTL", "value": "best response"}]}
{"sequence": "FQDENYLYL (listed as Mus musculus) [FNL9, natural peptide of DMK and MRCKβ]", "values": [{"measurement": "AI4 CTL response to natural peptides with AI4-preferred motif", "setting": "AI4 CTL", "value": "mirroring that obtained with the Mim peptide"}, {"measurement": "IFN-γ spots in response to peptide", "setting": "[1]", "value": "recognized by a detectable population of T cells"}]}
{"sequence": "LYLVCGERI (listed as Mouse sp.) [INS-I9, G9I variant of murine insulin B15-23]", "values": [{"measurement": "binding to H-2K^d relative to insulin B15-23", "setting": "H-2K^d", "value": "more stable binding"}]}
{"sequence": "FTDESYLEL [FSL9, natural peptide of polymyositis/scleroderma autoantigen 2]", "values": [{"measurement": "AI4 CTL response to natural peptides with AI4-preferred motif", "setting": "AI4 CTL", "value": "nonreacting"}]}
{"sequence": "EVVESYMYL [EL9, natural peptide, similar to 1,2-α-mannosidase IC]", "values": [{"measurement": "AI4 CTL response to natural peptides with AI4-preferred motif", "setting": "AI4 CTL", "value": "nonreacting"}]}
{"sequence": "KYNKANVFL (peptide NRP-V7) [mimotope peptide recognized by 8.3-like T cells]", "values": [{"measurement": "IFN-γ spots in response to peptide", "setting": "[1]", "value": "detectable"}]}
{"sequence": "TYEIAPVFV (listed as Mus musculus) [GAD65206, murine glutamic acid decarboxylase 65 206-214]", "values": [{"measurement": "IFN-γ spots in response to peptide", "setting": "[1]", "value": "unable to detect responses"}]}
{"sequence": "YFIENALEL [A6]", "values": [{"measurement": "AI4 cytotoxic response towards peptide-pulsed RMA-S target cells", "setting": "AI4 CTL", "value": "significantly lower responses"}]}
{"sequence": "YFIANYLEL [A4]", "values": [{"measurement": "AI4 cytotoxic response towards peptide-pulsed RMA-S target cells", "setting": "AI4 CTL", "value": "significantly lower responses"}]}
{"sequence": "RTSENYLEL [RLL9, natural peptide of MKIAA1569 protein]", "values": [{"measurement": "AI4 CTL response to natural peptides with AI4-preferred motif", "setting": "AI4 CTL", "value": "nonreacting"}]}
{"sequence": "YFIENYAEL [A7]", "values": [{"measurement": "AI4 cytotoxic response towards peptide-pulsed RMA-S target cells", "setting": "AI4 CTL", "value": "decreased"}]}
{"sequence": "QYLENYLWM (listed as Mus musculus) [QM9, natural peptide of aquarius]", "values": [{"measurement": "AI4 CTL response to natural peptides with AI4-preferred motif", "setting": "AI4 CTL", "value": "more weakly"}]}
{"sequence": "LYLVCGERL (listed as Mus musculus) [INS-L9, G9L variant of murine insulin B15-23]", "values": [{"measurement": "binding to H-2K^d relative to insulin B15-23", "setting": "H-2K^d", "value": "more stable binding"}, {"measurement": "IFN-γ spots in response to peptide", "setting": "[1]", "value": "detectable"}]}
{"sequence": "RLFENYIEL (listed as Mus musculus) [RIL9, natural peptide of exocyst complex component Sec5]", "values": [{"measurement": "AI4 CTL response to natural peptides with AI4-preferred motif", "setting": "AI4 CTL", "value": "more weakly"}]}
{"sequence": "HEAESYML [HL9, natural peptide of calcitonin receptor precursor]", "values": [{"measurement": "AI4 CTL response to natural peptides with AI4-preferred motif", "setting": "AI4 CTL", "value": "nonreacting"}]}
{"sequence": "DMHENYMEM [DM9, natural peptide of X-linked lymphocyte regulated complex]", "values": [{"measurement": "AI4 CTL response to natural peptides with AI4-preferred motif", "setting": "AI4 CTL", "value": "nonreacting"}]}
{"sequence": "SYQPLGDKV (listed as Mus musculus) [GAD65546, murine GAD65 546-554 peptide]", "values": [{"measurement": "IFN-γ spots in response to peptide", "setting": "[1]", "value": "unable to detect responses"}]}
{"sequence": "TNKENYTEL [TL9, natural peptide of stromal cell derived factor receptor 1]", "values": [{"measurement": "AI4 CTL response to natural peptides with AI4-preferred motif", "setting": "AI4 CTL", "value": "nonreacting"}]}
{"sequence": "VMLENYTHL (listed as Mus musculus) [VML9, natural peptide, similar to KRAB zinc finger protein]", "values": [{"measurement": "AI4 CTL response to natural peptides with AI4-preferred motif", "setting": "AI4 CTL", "value": "more weakly"}]}
{"sequence": "YFIENYLAL [A8]", "values": [{"measurement": "AI4 cytotoxic response towards peptide-pulsed RMA-S target cells", "setting": "AI4 CTL", "value": "decreased"}]}
{"sequence": "FYTPMSRREV (listed as Mus musculus) [INS BC, murine insulin 2 B25-C34]", "values": [{"measurement": "IFN-γ spots in response to peptide", "setting": "[1]", "value": "No spots were detected"}]}
